One compound from US20260027096A1, “PHD INHIBITORS” (Oxford University Innovation Limited, priority 2023, published 2026) can be followed below.

The subject of this assay is murine iMLL-AF9 LSK cells in DOX-treated recipient mice. Put plainly: iMLL-AF9 LSK cell transplantation AML model. The note with it: vs vehicle. The assay is classed as in vivo, mouse. The text has this: (A) 100,000 THP-1 cells were transplanted into NBSGW recipient mice. […] (B-C) Percentage of human CD45+CD33+ and human CD45+CD14+ cells in the BM and spleen, respectively (n=4-5). (D) 100,000 OCI-AML3 cells were transplanted into NBSGW recipient mice. […] (E) Percentage of human CD45+CD33+CD14+ cells in the liver, BM and PB, respectively (n=3-7). (F) 2,000 LSK cells from iMLL-AF9;Control mice were sorted and transplanted into irradiated recipient mice. […] (H) LDA in secondary recipients transplanted with indicated doses of CD45.2+BM cells from primary recipients (n=9-10 per dose). (I) Plot showing Poisson statistical analysis. […] LSC frequencies were calculated using the ELDA software 121. […]
For primary transplantations of leukemic cells, 100,000 Meis1/Hoxa9-transduced c-Kit^+ cells or 2,000 iMLL-AF9 Lin Sca-1^+c-Kit^+ (LSK) cells were transplanted into lethally irradiated CD45.1^+/CD45.2^+ recipient mice (together with 200,000 unfractionated support CD45.1^+ wild-type BM cells). All recipient were culled upon reaching their humane endpoint as recorded in survival curves.
For secondary transplantations of leukaemic cells, 50,000 cells harvested from primary recipients were transplanted into lethally irradiated CD45.1+/CD45.2+recipient mice (together with 200,000 unfractionated support CD45.1+wild-type BM cells). […] LSC frequency was calculated using ELDA software^121. […]

On to `O=C(NCC1CCC(C(F)(F)F)CC1)c1c[nH]c(-n2cccn2)cc1=O` (centres unmarked) [IOX5], for which, where the note is “i.p. twice daily for 14 days”, the “survival of leukaemic mice” value was “significantly increased survival of leukaemic mice”. Besides, the “LSC frequency (limiting dilution assay)” value (secondary recipients) is “significantly decreased LSC frequency”.
